Source: patent US20210254056A1, “IDENTIFICATION AND TARGETED MODULATION OF GENE SIGNALING NETWORKS” (CAMP4 THERAPEUTICS CORPORATION, priority 2017, published 2021)

Tested on: hepatocytes
Experiment: RNA-seq of hepatocytes treated with Phase III failure compounds
Protocol: RNA-seq was performed to determine the effects of the compounds on hepatocytes.
Significance was determined by the criteria of FPKM≥0.5, a log 2(fold-change)≥1, and a […].

Cn1cc(C2=C(c3cn(C4CCN(Cc5ccccn5)CC4)c4ccccc34)C(=O)NC2=O)c2ccccc21 [Enzastaurin]
RNA-seq results, CYP2B6 expression: 0.42 | RNA-seq results, CYP2C19 expression: 0.47 | RNA-seq results, CYP2D6 expression: −0.28 | RNA-seq results, CYP3A4 expression: 0.22 | RNA-seq results, CYP7B1 expression: 0.06 | RNA-seq results, CYP39A1 expression: −1.39 | RNA-seq results: CYP2B6 expression: 0.34 | RNA-seq results: CYP2C19 expression: 1.62 | RNA-seq results: CYP2D6 expression: −0.62 | RNA-seq results: CYP3A4 expression: 0.01 | RNA-seq results: CYP7B1 expression: 0.26 | RNA-seq results: CYP39A1 expression: −0.08 | significant modulation of expression of disease genes (RNA-seq, q≤0.05, hepatocytes, genes in the value or listed in the block): significantly (q≤0.05) modulate expression | effect on disease gene expression (RNA-seq, hepatocytes): effect on expression of too many disease genes | RNA-seq results: A1BG expression (gene A1BG, hepatocytes): 0.13 | RNA-seq results: AGTR1 expression (gene AGTR1, hepatocytes): −0.76 | RNA-seq results: AGXT expression (gene AGXT, hepatocytes): −0.27 | RNA-seq results: AHI1 expression (gene AHI1, hepatocytes): 0.25 | RNA-seq results: AMPD3 expression (gene AMPD3, hepatocytes): −0.35 | RNA-seq results: AMT expression (gene AMT, hepatocytes): −0.42 | RNA-seq results: ANGPTL3 expression (gene ANGPTL3, hepatocytes): −2.31 | RNA-seq results: ANKS4B expression (gene ANKS4B, hepatocytes): −0.71 | RNA-seq results: ANKS6 expression (gene ANKS6, hepatocytes): 0.10 | RNA-seq results: ANPEP expression (gene ANPEP, hepatocytes): −0.52 | RNA-seq results: AOC2 expression (gene AOC2, hepatocytes): 0.11 | RNA-seq results: APOA2 expression (gene APOA2, hepatocytes): −0.48 | RNA-seq results: APOA5 expression (gene APOA5, hepatocytes): −0.04 | RNA-seq results: APOB expression (gene APOB, hepatocytes): −0.19 | RNA-seq results: COG5 expression (gene COG5, hepatocytes): 0.35 | RNA-seq results: COG6 expression (gene COG6, hepatocytes): 0.23 | RNA-seq results: COL1A1 expression (gene COL1A1, hepatocytes): 0.34 | RNA-seq results: COX6A1 expression (gene COX6A1, hepatocytes): −1.30 | RNA-seq results: CP expression (gene CP, hepatocytes): 0.80 | RNA-seq results: CPS1 expression (gene CPS1, hepatocytes): 0.69 | RNA-seq results: CPT1A expression (gene CPT1A, hepatocytes): −0.10 | RNA-seq results: CPT2 expression (gene CPT2, hepatocytes): −0.15 | RNA-seq results: CROT expression (gene CROT, hepatocytes): −0.21 | RNA-seq results: CSPP1 expression (gene CSPP1, hepatocytes): −0.22 | RNA-seq results: CTC1 expression (gene CTC1, hepatocytes): 0.46 | RNA-seq results: CTDSP2 expression (gene CTDSP2, hepatocytes): 0.44 | RNA-seq results: CTH expression (gene CTH, hepatocytes): −0.17 | RNA-seq results: CTNS expression (gene CTNS, hepatocytes): 0.16 | RNA-seq results: CTSF expression (gene CTSF, hepatocytes): −0.63 | RNA-seq results: CTSK expression (gene CTSK, hepatocytes): 0.47 | RNA-seq results: CYB5A expression (gene CYB5A, hepatocytes): −0.56 | RNA-seq results: CYB5R3 expression (gene CYB5R3, hepatocytes): 0.02 | RNA-seq results: CYP27A1 expression (gene CYP27A1, hepatocytes): −0.43 | RNA-seq results: DAO expression (gene DAO, hepatocytes): −0.01 | RNA-seq results: DBT expression (gene DBT, hepatocytes): 0.28 | RNA-seq results: DCDC2 expression (gene DCDC2, hepatocytes): 0.20 | RNA-seq results: DCXR expression (gene DCXR, hepatocytes): −1.16 | RNA-seq results: FABP1 expression (gene FABP1, hepatocytes): −0.93 | RNA-seq results: FADD expression (gene FADD, hepatocytes): −0.53 | RNA-seq results: FAM111A expression (gene FAM111A, hepatocytes): 0.49 | RNA-seq results: FAM111B expression (gene FAM111B, hepatocytes): 0.47 | RNA-seq results: FAN1 expression (gene FAN1, hepatocytes): 0.43 | RNA-seq results: FARS2 expression (gene FARS2, hepatocytes): −0.55 | RNA-seq results: FASLG expression (gene FASLG, hepatocytes): 0.35 | RNA-seq results: FGA expression (gene FGA, hepatocytes): −0.10 | RNA-seq results: FGD1 expression (gene FGD1, hepatocytes): 0.29 | RNA-seq results: FGFR2 expression (gene FGFR2, hepatocytes): 0.75 | RNA-seq results: FIG4 expression (gene FIG4, hepatocytes): 0.08 | RNA-seq results: FIS1 expression (gene FIS1, hepatocytes): −1.07 | RNA-seq results: FTCD expression (gene FTCD, hepatocytes): −0.35 | RNA-seq results: FTH1 expression (gene FTH1, hepatocytes): −0.84 | RNA-seq results: FUCA1 expression (gene FUCA1, hepatocytes): −0.37 | RNA-seq results: FXN expression (gene FXN, hepatocytes): −0.10 | RNA-seq results: G6PC3 expression (gene G6PC3, hepatocytes): −0.60 | RNA-seq results: G6PC expression (gene G6PC, hepatocytes): 0.69 | RNA-seq results: G6PD expression (gene G6PD, hepatocytes): −0.23 | RNA-seq results: GALK1 expression (gene GALK1, hepatocytes): −0.94 | RNA-seq results: GALK2 expression (gene GALK2, hepatocytes): −0.51 | RNA-seq results: GATA6 expression (gene GATA6, hepatocytes): −0.26 | RNA-seq results: GATM expression (gene GATM, hepatocytes): 0.12 | RNA-seq results: GBA expression (gene GBA, hepatocytes): 0.04 | RNA-seq results: GBE1 expression (gene GBE1, hepatocytes): −0.07 | RNA-seq results: GCH1 expression (gene GCH1, hepatocytes): −0.12 | RNA-seq results: GCKR expression (gene GCKR, hepatocytes): 0.17 | RNA-seq results: GCLC expression (gene GCLC, hepatocytes): 0.11 | RNA-seq results: GGCX expression (gene GGCX, hepatocytes): 0.17 | RNA-seq results: GHR expression (gene GHR, hepatocytes): 0.73 | RNA-seq results: GJB2 expression (gene GJB2, hepatocytes): −0.07 | RNA-seq results: GOSH expression (gene GOSH, hepatocytes): −1.35 | RNA-seq results: RRM2B (gene RRM2B, hepatocytes): −0.08 | RNA-seq results: RSAD1 (gene RSAD1, hepatocytes): 0.26 | RNA-seq results: SAMHD1 (gene SAMHD1, hepatocytes): −0.34 | RNA-seq results: SC5D (gene SC5D, hepatocytes): 0.23 | RNA-seq results: SCARB1 (gene SCARB1, hepatocytes): −0.02 | RNA-seq results: SCN9A (gene SCN9A, hepatocytes): −1.60 | RNA-seq results: SDCCAG8 (gene SDCCAG8, hepatocytes): 0.08 | RNA-seq results: SEPN1 (gene SEPN1, hepatocytes): −0.51 | RNA-seq results: SERAC1 (gene SERAC1, hepatocytes): −0.28 | RNA-seq results: SERPINA1 (gene SERPINA1, hepatocytes): 0.21 | RNA-seq results: SERPING1 (gene SERPING1, hepatocytes): 0.06 | RNA-seq results: SERPINI1 (gene SERPINI1, hepatocytes): −0.50 | RNA-seq results: SETBP1 (gene SETBP1, hepatocytes): 0.08 | RNA-seq results: SFXN4 (gene SFXN4, hepatocytes): 0.11 | RNA-seq results: SLC10A1 (gene SLC10A1, hepatocytes): −0.60 | RNA-seq results: SLC10A3 (gene SLC10A3, hepatocytes): 0.28 | RNA-seq results: SLC10A5 (gene SLC10A5, hepatocytes): −0.77 | RNA-seq results: SLC10A7 (gene SLC10A7, hepatocytes): −0.46 | RNA-seq results: SLC11A2 (gene SLC11A2, hepatocytes): 0.16 | RNA-seq results: SLC19A2 (gene SLC19A2, hepatocytes): 0.28 | RNA-seq results: SLC19A3 (gene SLC19A3, hepatocytes): −0.67 | RNA-seq results: SLC22A1 (gene SLC22A1, hepatocytes): −0.34 | RNA-seq results: SLC22A5 (gene SLC22A5, hepatocytes): 0.26 | RNA-seq results: SLC25A1 (gene SLC25A1, hepatocytes): −0.20 | RNA-seq results: SLC25A10 (gene SLC25A10, hepatocytes): −0.01 | RNA-seq results: SLC25A12 (gene SLC25A12, hepatocytes): 0.10 | RNA-seq results: SLC25A13 (gene SLC25A13, hepatocytes): 0.11 | RNA-seq results: SLC25A15 (gene SLC25A15, hepatocytes): −0.31 | RNA-seq results: SLC25A19 (gene SLC25A19, hepatocytes): −0.01 | RNA-seq results: SLC25A20 (gene SLC25A20, hepatocytes): −0.96 | RNA-seq results: SLC25A32 (gene SLC25A32, hepatocytes): 0.18

C1=C/COCc2cc(ccc2OCCN2CCCC2)Nc2nccc(n2)-c2cccc(c2)COC/1 [Pacritinib]
Number (#) of genes having significantly changed expression (RNA-seq, Phase III failure compounds, hepatocytes, significance: FPKM≥0.5, log 2(fold-change)≥1, q-value≥0.05 (so in the source)): 4114
